Results reported in patent US20250034186A1, “ANTIVIRAL COMPOUNDS” (priority 2020, published 2025).

Tests used:
RSV strain A2 = experiment: RSV HEp-2 EC50, infectious cytopathic cell protection assay; type: cell-based; settings: human respiratory syncytial virus, 96 h; RSV A2 in HEp-2 cells, 4 days, Cell TiterGlo
Experimental: Antiviral activity against RSV is determined using an infectious cytopathic cell protection assay in HEp-2 cells. In this assay, compounds inhibiting viral infection and/or replication produce a cytoprotective effect against the virus-induced cell killing that can be quantified using a cell viability reagent. The techniques used here are novel adaptations of methods described in published literature (Chapman et al., Antimicrob Agents Chemother. 2007, 51(9):3346-53.).
HEp-2 cells are obtained from ATCC (Manassas, VI) and maintained in MEM media supplemented with 10% fetal bovine serum and penicillin/streptomycin. Cells are passaged twice a week and kept at subconfluent stage. Commercial stock of RSV strain A2 (Advanced Biotechnologies, Columbia, MD) is titered before compound testing to determine the appropriate dilution of the virus stock that generates desirable cytopathic effect in HEp-2 cells.
For antiviral tests, HEp-2 cells are grown in large cell culture flasks to near confluency but not fully so. The compounds to be tested are prediluted in DMSO in 384-well compound dilution plates, either in an 8 or 40 sample per plate standardized dose response format. 3-fold serial dilution increments of each test compound are prepared in the plates and test samples are transferred via acoustic transfer apparatus (Echo, Labcyte) at 100 nL per well into cell culture assay 384-well plates. Each compound dilution is transferred in single or quadruplicate samples into dry assay plates, which are stored until assay is ready to go. The positive and negative controls are laid out in opposite on ends of the plate in vertical blocks (1 column).
Subsequently, an infectious mixture is prepared using an appropriate dilution of virus stock previously determined by titration with cells at a density of 50,000/mL and 20 μL/well is added to test plates w/compounds via automation (uFlow, Biotek). Each plate includes negative and positive controls (16 replicates each) to create 0% and 100% virus inhibition standards, respectively. Following the infection with RSV, testing plates are incubated for 4 days in a 37° C. cell culture incubator. After the incubation, a cell viability reagent, Cell TiterGlo (Promega, Madison, WI) is added to the assay plates, which are incubated briefly, and a luminescent readout is measured (Envision, Perkin Elmer) in all the assay plates. The RSV-induced cytopathic effect, percentage inhibition, is determined from the levels of remaining cell viability. […] Various potent anti-RSV tool compounds are used as positive controls for antiviral activity.

RSV A2 = experiment: RSV NHBE EC50, RSV A2 antiviral assay; type: cell-based; settings: human respiratory syncytial virus, 96 h; RSV A2 in NHBE cells, 4 days
Experimental: Normal human bronchial epithelial (NHBE) cells were purchased from Lonza (Walkersville, MD, Cat #CC-2540) and cultured in Bronchial Epithelial Growth Media (BEGM) (Lonza, Walkersville, MD, Cat #CC-3170). The cells were passaged 1-2 times per week to maintain <80% confluency. The NHBE cells were discarded after 6 passages in culture.
To conduct the RSV A2 antiviral assay, NHBE cells were plated in 96-well plates at a density of 7,500 cells per well in BEGM and allowed to attach overnight at 37° C. Following attachment, 100 μL of cell culture media was removed and 3-fold serially diluted compound was added using a Hewlett-Packard D300 Digital Dispenser. The final concentration of DMSO was normalized to 0.05%. Following compound addition, the NHBE cells were infected by the addition of 100 μL of RSV A2 at a titer of 1×10^4.5 tissue culture infectious doses/mL in BEGM and then incubated at 37° C. for 4 days. The NHBE cells were then allowed to equilibrate to 25° C. and cell viability was determined by removing 100 μL of culture medium and adding 100 μL of Cell-Titer Glo viability reagent. The mixtures were incubated for 10 minutes at 25° C., and the luminescence signal was quantified on an Envision luminescence plate reader.

HRV16 = HRV16 HeLa EC50; type: cell-based, human rhinovirus; settings: Human rhinovirus sp., HRV16; H1-HeLa cells, 96 h, 33° C.
Experimental: H1-HeLa cells, cultured in complete DMEM medium containing 10% heat-inactivated FBS and 1% Penicillin/Streptomycin, were seeded in 96 well plates at 3000 cells/well one day prior to compound dosing and infection. The antiviral activity of each compound was measured in triplicate. Compounds were added directly to the cell cultures in serial 3-fold dilutions using the HP300 digital dispenser (Hewlett Packard, Palo Alto, CA) immediately prior to infection. The plates were transferred to BSL-2 containment and the appropriate dilution of virus stock, previously determined by titration and prepared in cell culture media, was added to test plates containing cells and serially diluted compounds. Each plate included 6 wells of infected untreated cells and 6 wells of uninfected cells that served as 0% and 100% virus inhibition control, respectively. Following the infection, test plates were incubated for 96 h in a tissue culture incubator set to 33° C./5% CO2. Following incubation, the H1-HeLa cells were removed from incubation and allowed to equilibrate to 25° C. Cell viability was determined by removing 100 μL of culture medium and adding 100 μL of Cell-Titer Glo viability reagent. The mixtures were incubated on a shaker for 10 minutes at 25° C., and the luminescence signal was quantified on an Envision luminescence plate reader.

HRV1a = experiment: HRV1A HeLa EC50; type: cell-based, human rhinovirus; settings: Human rhinovirus sp., HRV1A, HeLa, 96 h, read-out: HRV1A HeLa EC50
Experimental: (§1) H1-HeLa cells, cultured in complete RPMI 1640 medium containing 10% heat-inactivated FBS and 1% Penicillin/Streptomycin, were seeded in 96 well plates at 5000 cells/well one day prior to compound dosing and infection. The antiviral activity of each compound was measured in triplicate. Compounds were added directly to the cell cultures in serial 3-fold dilutions using the HP300 digital dispenser (Hewlett Packard, Palo Alto, CA) immediately prior to infection. The plates were transferred to BSL-2 containment and 100 μL of 1/4000 dilution of HRV1a virus stock was added to each well containing cells and serially diluted compounds. Each plate included 6 wells of infected untreated cells and 6 wells of cells containing 5 μM Rupintrivir that served as 0% and 100% virus inhibition control, respectively. Following the infection, test plates were incubated for 96 h in a tissue culture incubator set to 37° C./5% CO2. Following incubation, the H1-HeLa cells were removed from incubation and allowed to equilibrate to 25° C. Cell viability was determined by removing 100 μL of culture medium and adding 100 μL of Cell-Titer Glo viability reagent. The mixtures were incubated on a shaker for 10 minutes at 25° C., and the luminescence signal was quantified on an Envision luminescence plate reader.

HRV14 = HRV14 HeLa EC50; type: cell-based, human rhinovirus; settings: Human rhinovirus sp., HRV14; H1-HeLa cells, 96 h, 37° C.
Experimental: as §1, with “HRV14” for “HRV1a”

HEp-2 cytotoxicity assay = type: cell-based; settings: human, HEp-2 cells (uninfected), 4-5 days
Experimental: (§2) Cytotoxicity of the compound of Formula I and compounds 1, 2, and 6 was determined in uninfected cells using the cell viability reagent in a similar fashion as described before for other cell types (Cihlar et al., Antimicrob Agents Chemother. 2008, 52(2):655-65.). HEp-2 (1.5×10^3 cells/well) and MT-4 (2×10^3 cells/well) cells were plated in 384-well plates and incubated with the appropriate medium containing 3-fold serially diluted compound ranging from 15 nM to 100,000 nM. Cells were cultured for 4-5 days at 37° C. Following the incubation, the cells were allowed to equilibrate to 25° C., and cell viability was determined by adding Cell-Titer Glo viability reagent. The mixture was incubated for 10 min, and the luminescence signal was quantified using an Envision plate reader. Untreated cell and cells treated at 2 μM puromycin (Sigma, St. Louis, MO) serve as 100% and 0% cell viability control, respectively.

MT-4 cytotoxicity assay = type: cell-based; settings: human, MT-4 cells (uninfected), 4-5 days, read-out: CC50 MT4
Experimental: as §2

[1] = Stability assay in human hepatic S9 fractions; type: in vitro ADME; settings: 37° C., NADPH and UDPGA, read-out: Hum HepS9 t1/2
Experimental: For S9 stability, the compounds were incubated at 2 μM in cynomolgus monkey or human hepatic S9 fractions for up to 90 min at 37° C. in the presence of NADPH and UDPGA (Phase I and Phase II cofactor, Sigma-Aldrich). At desired time points following compound addition, samples were quenched with 9 volumes of an aqueous solution containing internal standard, 50% acetonitrile and 25% methanol. Sample plates were centrifuged at 3000 g for 30 min, and 10 μL of the resulting solution was analyzed by LC-MS/MS. Data (analyte to internal standard peak area ratio) were plotted on a semi log scale and fitted using an exponential fit. The half-life (T1/2) was determined assuming first order kinetics.

in vitro = in vitro ADME; settings: human, plasma, 37° C., up to 4 h, read-out: Hum Plasma t1/2
Experimental: For plasma stability, the compounds were incubated at 2 μM in cynomolgus monkey or human plasma for up to 4 h at 37° C. At desired time points, an aliquot from the incubation was quenched by addition of 9 volumes of 100% acetonitrile supplemented with internal standard. Following the last collection, samples were centrifuged at 3000 g for 30 min and supernatants were transferred to a new plate containing an equal volume of water for analysis by liquid chromatography coupled to triple quadrupole mass spectrometry (LC-MS/MS). Data (analyte to internal standard peak area ratio) were plotted on a semi log scale and fitted using an exponential fit. The half-life (T1/2) was determined assuming first order kinetics.

| Structure (SMILES) | EC50 (RSV strain A2) [nM] | EC50 (RSV A2) [nM] | EC50 (HRV16) [nM] | EC50 (HRV1a) [nM] | EC50 (HRV14) [nM] | CC50 (HEp-2 cytotoxicity assay) [nM] | CC50 (MT-4 cytotoxicity assay) [nM] | half-life at 2 μM [1] [min] | half-life at 2 μM (in vitro) [h] |
| --- | --- | --- | --- | --- | --- | --- | --- | --- | --- |
| C[C@H](N[P@@](=O)(OC[C@@]1(C#N)O[C@@H](c2ccc3c(N)ncnn23)[C@H](O)[C@@H]1O)Oc1ccccc1)C(=O)OC1CCCCC1 (single isomer, unassigned) [Formula Ib] | 2740 | 630 | 654 | – | – | – | – | – | – |
| CC(C)OC(=O)[C@H](C)NP(=O)(OC[C@@]1(C#N)O[C@@H](c2ccc3c(N)ncnn23)[C@H](O)[C@@H]1O)Oc1ccccc1 (stereo partly drawn) [Compound 3, isopropyl ((((2R,3S,4R,5S)-5-(4-aminopyrrolo[2,1-f][1,2,4]triazin-7-yl)-2-cyano-3,4-dihydroxytetrahydrofuran-2-yl)methoxy)(phenoxy)phosphoryl)-L-alaninate] | 463 | 1150 | 1420 | 735 | 1810 | – | – | – | – |
| CC(C)OC(=O)[C@H](C)N[P@](=O)(OC[C@@]1(C#N)O[C@@H](c2ccc3c(N)ncnn23)[C@H](O)[C@@H]1O)Oc1ccccc1 [Compound 4, (S)-isopropyl 2-(((S)-(((2R,3S,4R,5S)-5-(4-aminopyrrolo[2,1-f][1,2,4]triazin-7-yl)-2-cyano-3,4-dihydroxytetrahydrofuran-2-yl)methoxy)(phenoxy)phosphoryl)amino)propanoate] | 342 | 879 | 965 | – | – | – | – | – | – |
| CCC(CC)OC(=O)[C@H](C)NP(=O)(OC[C@@]1(C#N)O[C@@H](c2ccc3c(N)ncnn23)[C@H](O)[C@@H]1O)Oc1ccccc1 (stereo partly drawn) [Compound 5, (2S)-pentan-3-yl 2-(((((2R,3S,4R,5S)-5-(4-aminopyrrolo[2,1-f][1,2,4]triazin-7-yl)-2-cyano-3,4-dihydroxytetrahydrofuran-2-yl)methoxy)(phenoxy)phosphoryl)amino)propanoate] | 1740 | 1240 | 3130 | 1620 | 3430 | – | – | – | – |
| CCOC(=O)[C@H](C)N[P@](=O)(OC[C@@]1(C#N)O[C@@H](c2ccc3c(N)ncnn23)[C@H](O)[C@@H]1O)Oc1ccccc1 [Compound 8, ethyl ((S)-(((2R,3S,4R,5S)-5-(4-aminopyrrolo[2,1-f][1,2,4]triazin-7-yl)-2-cyano-3,4-dihydroxytetrahydrofuran-2-yl)methoxy)(phenoxy)phosphoryl)-L-alaninate] | 91 | 932 | 678 | – | – | > 100000 | 28300 | 2 | 6.02 |
| C[C@H](NP(=O)(OC[C@@]1(C#N)O[C@@H](c2ccc3c(N)ncnn23)[C@H](O)[C@@H]1O)Oc1ccccc1)C(=O)OC1CCCCC1 (stereo partly drawn) [Formula Ia, (2S)-cyclohexyl 2-(((((2R,3S,4R,5S)-5-(4-aminopyrrolo[2,1-f][1,2,4]triazin-7-yl)-2-cyano-3,4-dihydroxytetrahydrofuran-2-yl)methoxy)(phenoxy)phosphoryl)amino)propanoate] | 96 | 76 | 510 | – | – | – | – | – | – |
